Experimental data taken from patent US10798941B2, “Microbiocidal oxadiazole derivatives” (SYNGENTA PARTICIPATIONS AG, priority 2016, dated 2020).

Key:
[1] = tested on: Puccinia recondita f. Sp. Tritici; assay: Puccinia recondita f. sp. tritici / wheat / leaf disc curative (brown rust); format: in vivo; conditions: foliar, 144 h, 200 ppm in the applied formulation, wheat leaf segments cv. Kanzler, applied 1 day after inoculation, assessed 6 to 8 days after application, vs untreated, read-out: disease control
Procedure: (§1) Leaf disks or leaf segments of various plant species are cut from plants grown in a greenhouse. The cut leaf disks or segments are placed in multiwell plates (24-well format) onto water agar. The leaf disks are sprayed with a test solution before (preventative) or after (curative) inoculation. Compounds to be tested are prepared as DMSO solutions (max. 10 mg/ml) which are diluted to the appropriate concentration with 0.025% Tween20 just before spraying. The inoculated leaf disks or segments are incubated under defined conditions (temperature, relative humidity, light, etc.) according to the respective test system. A single evaluation of disease level is carried out 3 to 14 days after inoculation, depending on the pathosystem. Percent disease control relative to the untreated check leaf disks or segments is then calculated.
Wheat leaf segments cv. Kanzler are placed on agar in multiwell plates (24-well format). The leaf segments are then inoculated with a spore suspension of the fungus. Plates were stored in darkness at 19° C. and 75% relative humidity. The formulated test compound diluted in water was applied 1 day after inoculation. The leaf segments were incubated at 19° C. and 75% relative humidity under a light regime of 12 hours light/12 hours darkness in a climate cabinet and the activity of a compound was assessed as percent disease control compared to untreated when an appropriate level of disease damage appears in untreated check leaf segments (6 to 8 days after application).
(§2) The following compounds at 200 ppm in the applied formulation give at least 80% disease control in this test when compared to untreated control leaf disks under the same conditions, which show extensive disease development.

[2] = tested on: Glomerella Lagenarium (Colletotrichum Lagenarium); assay: Glomerella lagenarium (Colletotrichum lagenarium) liquid culture / cucumber / preventative (anthracnose); format: cell-based; conditions: Colletotrichum orbiculare; 20 ppm in the applied formulation; liquid culture in PDB, 24° C., inhibition of growth measured photometrically 3 to 4 days after application, vs untreated; read-out: disease control
Procedure: Mycelia fragments or conidia suspensions of a fungus prepared either freshly from liquid cultures of the fungus or from cryogenic storage, are directly mixed into nutrient broth. DMSO solutions of the test compound (max. 10 mg/ml) are diluted with 0.025% Tween20 by a factor of 50 and 10 μl of this solution is pipetted into a microtiter plate (96-well format). The nutrient broth containing the fungal spores/mycelia fragments is then added to give an end concentration of the tested compound. The test plates are incubated in the dark at 24° C. and 96% relative humidity. The inhibition of fungal growth is determined photometrically after 2 to 7 days, depending on the pathosystem, and percent antifungal activity relative to the untreated check is calculated.
Conidia of the fungus from cryogenic storage are directly mixed into nutrient broth (PDB—potato dextrose broth). After placing a (DMSO) solution of test compound into a microtiter plate (96-well format), the nutrient broth containing the fungal spores is added.
The following compounds at 20 ppm in the applied formulation give at least 80% disease control in this test when compared to untreated control under the same conditions, which show extensive disease development.

[3] = tested on: Puccinia recondita f. Sp. Tritici; assay: Puccinia recondita f. sp. tritici / wheat / leaf disc preventative (brown rust); format: in vivo; conditions: foliar, 168 h, 200 ppm in the applied formulation, wheat leaf segments cv. Kanzler, preventative, inoculated 1 day after application, assessed 7 to 9 days after application, vs untreated, read-out: disease control
Procedure: as §1
Wheat leaf segments cv. Kanzler were placed on agar in multiwell plates (24-well format) and sprayed with the formulated test compound diluted in water. The leaf disks were inoculated with a spore suspension of the fungus 1 day after application. The inoculated leaf segments were incubated at 19° C. and 75% relative humidity (rh) under a light regime of 12 hours light/12 hours darkness in a climate cabinet and the activity of a compound was assessed as percent disease control compared to untreated when an appropriate level of disease damage appears in untreated check leaf segments (7 to 9 days after application).
as §2

Compound: FC(F)(F)c1nc(-c2ccc(Cn3ncnc3C(F)(F)F)cc2)no1 [Compound 1.38, 5-(trifluoromethyl)-3-[4-[[5-(trifluoromethyl)-1,2,4-triazol-1-yl]methyl]phenyl]-1,2,4-oxadiazole]
- pest or weed control at 200 ppm [1]: ≥ 80%
- inhibition of growth at 20 ppm [2]: ≥ 80%

Compound: FC(F)(F)c1nc(-c2ccc(Cn3cc(I)cn3)cc2)no1 [Compound 1.44, 3-[4-[(4-iodopyrazol-1-yl)methyl]phenyl]-5-(trifluoromethyl)-1,2,4-oxadiazole]
- pest or weed control at 200 ppm [3]: ≥ 80%
- pest or weed control at 200 ppm [1]: ≥ 80%
- inhibition of growth at 20 ppm [2]: ≥ 80%

Compound: N#Cc1ncn(Cc2ccc(-c3noc(C(F)(F)F)n3)cc2)c1C#N [Compound 1.45, 1-[[4-[5-(trifluoromethyl)-1,2,4-oxadiazol-3-yl]phenyl]methyl]imidazole-4,5-dicarbonitrile]
- pest or weed control at 200 ppm [3]: ≥ 80%
- pest or weed control at 200 ppm [1]: ≥ 80%
- inhibition of growth at 20 ppm [2]: ≥ 80%

Compound: FC(F)(F)c1nc(-c2ccc(Cn3cnc(Cl)c3Cl)cc2)no1 [Compound 1.46, 3-[4-[(4,5-dichloroimidazol-1-yl)methyl]phenyl]-5-(trifluoromethyl)-1,2,4-oxadiazole]
- pest or weed control at 200 ppm [3]: ≥ 80%
- pest or weed control at 200 ppm [1]: ≥ 80%
- inhibition of growth at 20 ppm [2]: ≥ 80%

Compound: Fc1ccc2ccn(Cc3ccc(-c4noc(C(F)(F)F)n4)cc3)c2c1 [Compound 1.54, 3-[4-[(6-fluoroindol-1-yl)methyl]phenyl]-5-(trifluoromethyl)-1,2,4-oxadiazole]
- pest or weed control at 200 ppm [1]: ≥ 80%
- inhibition of growth at 20 ppm [2]: ≥ 80%

Compound: FC(F)(F)c1cnn(Cc2ccc(-c3noc(C(F)(F)F)n3)cc2)c1 [Compound 1.55, 5-(trifluoromethyl)-3-[4-[[4-(trifluoromethyl)pyrazol-1-yl]methyl]phenyl]-1,2,4-oxadiazole]
- pest or weed control at 200 ppm [3]: ≥ 80%
- pest or weed control at 200 ppm [1]: ≥ 80%
- inhibition of growth at 20 ppm [2]: ≥ 80%

Compound: O=Cc1cccn1Cc1ccc(-c2noc(C(F)(F)F)n2)cc1 [Compound 1.62, 1-[[4-[5-(trifluoromethyl)-1,2,4-oxadiazol-3-yl]phenyl]methyl]pyrrole-2-carbaldehyde]
- pest or weed control at 200 ppm [3]: ≥ 80%
- pest or weed control at 200 ppm [1]: ≥ 80%
- inhibition of growth at 20 ppm [2]: ≥ 80%

Compound: FC(F)(F)c1nc(-c2ccc(Cn3cc(Cl)cn3)cc2)no1 [Compound 1.67, 3-[4-[(4-chloropyrazol-1-yl)methyl]phenyl]-5-(trifluoromethyl)-1,2,4-oxadiazole]
- pest or weed control at 200 ppm [3]: ≥ 80%
- pest or weed control at 200 ppm [1]: ≥ 80%
- inhibition of growth at 20 ppm [2]: ≥ 80%

Compound: O=Cc1nccn1Cc1ccc(-c2noc(C(F)(F)F)n2)cc1 [Compound 1.71, 1-[[4-[5-(trifluoromethyl)-1,2,4-oxadiazol-3-yl]phenyl]methyl]imidazole-2-carbaldehyde]
- pest or weed control at 200 ppm [1]: ≥ 80%

Compound: N#Cc1cnn(Cc2ccc(-c3noc(C(F)(F)F)n3)cc2)c1 [Compound 1.76, 1-[[4-[5-(trifluoromethyl)-1,2,4-oxadiazol-3-yl]phenyl]methyl]pyrazole-4-carbonitrile]
- pest or weed control at 200 ppm [3]: ≥ 80%
- pest or weed control at 200 ppm [1]: ≥ 80%
- inhibition of growth at 20 ppm [2]: ≥ 80%

Compound: FC(F)(F)c1nc(-c2ccc(Cn3cc(Br)cn3)cc2)no1 [Compound 1.77, 3-[4-[(4-bromopyrazol-1-yl)methyl]phenyl]-5-(trifluoromethyl)-1,2,4-oxadiazole]
- pest or weed control at 200 ppm [1]: ≥ 80%
- inhibition of growth at 20 ppm [2]: ≥ 80%

Compound: Cc1cn(Cc2ccc(-c3noc(C(F)(F)F)n3)cc2)c(C)n1 [Compound 1.78, 3-[4-[(2,4-dimethylimidazol-1-yl)methyl]phenyl]-5-(trifluoromethyl)-1,2,4-oxadiazole]
- pest or weed control at 200 ppm [1]: ≥ 80%

Compound: CCOC(=O)c1c(C)ncn1Cc1ccc(-c2noc(C(F)(F)F)n2)cc1 [Compound 1.80, ethyl 5-methyl-3-[[4-[5-(trifluoromethyl)-1,2,4-oxadiazol-3-yl]phenyl]methyl]imidazole-4-carboxylate]
- pest or weed control at 200 ppm [3]: ≥ 80%
- pest or weed control at 200 ppm [1]: ≥ 80%
- inhibition of growth at 20 ppm [2]: ≥ 80%

Compound: Cn1c(=O)c2c(ncn2Cc2ccc(-c3noc(C(F)(F)F)n3)cc2)n(C)c1=O [Compound 1.81, 1,3-dimethyl-7-[[4-[5-(trifluoromethyl)-1,2,4-oxadiazol-3-yl]phenyl]methyl]purine-2,6-dione]
- pest or weed control at 200 ppm [3]: ≥ 80%
- pest or weed control at 200 ppm [1]: ≥ 80%
- inhibition of growth at 20 ppm [2]: ≥ 80%

Compound: FC(F)(F)c1nc(-c2ccc(Cn3cnc(-c4ccccc4)c3)cc2)no1 [Compound 1.82, 3-[4-[(4-phenylimidazol-1-yl)methyl]phenyl]-5-(trifluoromethyl)-1,2,4-oxadiazole]
- pest or weed control at 200 ppm [3]: ≥ 80%
- pest or weed control at 200 ppm [1]: ≥ 80%
- inhibition of growth at 20 ppm [2]: ≥ 80%

Compound: Cc1cn(Cc2ccc(-c3noc(C(F)(F)F)n3)cc2)cn1 [Compound 1.83, 3-[4-[(4-methylimidazol-1-yl)methyl]phenyl]-5-(trifluoromethyl)-1,2,4-oxadiazole]
- pest or weed control at 200 ppm [3]: ≥ 80%
- pest or weed control at 200 ppm [1]: ≥ 80%
- inhibition of growth at 20 ppm [2]: ≥ 80%

Compound: COC(=O)c1cncn1Cc1ccc(-c2noc(C(F)(F)F)n2)cc1 [Compound 1.89, methyl 3-[[4-[5-(trifluoromethyl)-1,2,4-oxadiazol-3-yl]phenyl]methyl]imidazole-4-carboxylate]
- pest or weed control at 200 ppm [3]: ≥ 80%
- pest or weed control at 200 ppm [1]: ≥ 80%
- inhibition of growth at 20 ppm [2]: ≥ 80%

Compound: Cc1nccn1Cc1ccc(-c2noc(C(F)(F)F)n2)cc1F [Compound 1.123, 3-[3-fluoro-4-[(2-methylimidazol-1-yl)methyl]phenyl]-5-(trifluoromethyl)-1,2,4-oxadiazole]
- pest or weed control at 200 ppm [3]: ≥ 80%
- pest or weed control at 200 ppm [1]: ≥ 80%

Compound: Cc1cn(Cc2ccc(-c3noc(C(F)(F)F)n3)cn2)c(C)n1 [Compound 1.134, 3-[6-[(2,4-dimethylimidazol-1-yl)methyl]-3-pyridyl]-5-(trifluoromethyl)-1,2,4-oxadiazole]
- pest or weed control at 200 ppm [1]: ≥ 80%

Compound: FC(F)(F)c1nc(-c2ccc(Cn3ccnc3)nc2)no1 [Compound 1.141, 3-[6-(imidazol-1-ylmethyl)-3-pyridyl]-5-(trifluoromethyl)-1,2,4-oxadiazole]
- pest or weed control at 200 ppm [3]: ≥ 80%
- pest or weed control at 200 ppm [1]: ≥ 80%

Compound: FC(F)(F)c1nc(-c2ccc(Cn3cncn3)nc2)no1 [Compound 1.143, 3-[6-(1,2,4-triazol-1-ylmethyl)-3-pyridyl]-5-(trifluoromethyl)-1,2,4-oxadiazole]
- pest or weed control at 200 ppm [1]: ≥ 80%
- inhibition of growth at 20 ppm [2]: ≥ 80%

Compound: Cc1cn(Cc2ccc(-c3noc(C(F)(F)F)n3)cc2F)c(C)n1 [Compound 1.145, 3-[4-[(2,4-dimethylimidazol-1-yl)methyl]-3-fluoro-phenyl]-5-(trifluoromethyl)-1,2,4-oxadiazole]
- pest or weed control at 200 ppm [3]: ≥ 80%
- pest or weed control at 200 ppm [1]: ≥ 80%

Compound: N#Cc1ncnn1Cc1ccc(-c2noc(C(F)(F)F)n2)nc1 [Compound 1.258, 2-[[6-[5-(trifluoromethyl)-1,2,4-oxadiazol-3-yl]-3-pyridyl]methyl]-1,2,4-triazole-3-carbonitrile]
- pest or weed control at 200 ppm [1]: ≥ 80%
- inhibition of growth at 20 ppm [2]: ≥ 80%

Compound: CNC(=O)c1cn(Cc2ccc(-c3noc(C(F)(F)F)n3)cc2)nn1 [Compound 1.272, N-methyl-1-[[4-[5-(trifluoromethyl)-1,2,4-oxadiazol-3-yl]phenyl]methyl]triazole-4-carboxamide]
- pest or weed control at 200 ppm [1]: ≥ 80%

Compound: CON=C1CCN(Cc2ccc(-c3noc(C(F)(F)F)n3)cc2)CC1 [Compound 1.293, N-methoxy-1-[[4-[5-(trifluoromethyl)-1,2,4-oxadiazol-3-yl]phenyl]methyl]piperidin-4-imine]
- pest or weed control at 200 ppm [1]: ≥ 80%
